This note sets out measurements from patent US9777005B2 (Takeda Pharmaceutical Company Limited, priority 2012, dated 2017).

The test concerns the target T1, human M1 receptor (hCHRM1) (Homo sapiens, UniProt P11229).
T1 construct: expressed in transfected cells; host or cells: CHO-K1
T1 sequence (P11229 1-460): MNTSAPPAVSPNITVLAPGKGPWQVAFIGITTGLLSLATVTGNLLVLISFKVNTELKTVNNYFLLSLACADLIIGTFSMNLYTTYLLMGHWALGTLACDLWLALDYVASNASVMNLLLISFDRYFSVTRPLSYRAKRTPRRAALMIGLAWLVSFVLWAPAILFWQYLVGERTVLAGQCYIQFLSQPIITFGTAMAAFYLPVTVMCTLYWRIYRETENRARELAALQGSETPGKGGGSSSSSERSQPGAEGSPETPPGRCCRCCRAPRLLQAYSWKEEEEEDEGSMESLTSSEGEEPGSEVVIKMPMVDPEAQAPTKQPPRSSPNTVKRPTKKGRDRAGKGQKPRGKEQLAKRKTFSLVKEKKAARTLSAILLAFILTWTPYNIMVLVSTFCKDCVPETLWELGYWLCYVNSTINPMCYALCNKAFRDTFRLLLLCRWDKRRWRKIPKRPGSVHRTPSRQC
The test is described as follows: Measurement of M1 receptor positive allosteric modulator (M1PAM) activity, calcium fluorescence (FLIPRtetra) in CHO-K1 cells in the presence of acetylcholine at EC20. The class given is cell-based. The settings on record: in the presence of acetylcholine at EC20 (final 0.6 nM), CHO-K1 cells expressing hCHRM1; for EC50: inflection point of M1PAM activity, read-out: IP value; for activity (%) at 10 μM: test compound 10 μM. The essentials:
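PAM activity was measured as calcium flux by FLIPRtetra over 1 min after co-addition of compound and EC20 acetylcholine (final 0.6 nM) to Fluo-4-loaded hCHRM1 CHO-K1 cells. The response was scaled between DMSO (0%) and 1 μM acetylcholine (100%), and the inflection point of the concentration curve gives the IP value.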

As to `O=C1c2c(ccnc2Oc2ccc(C(F)(F)F)cc2F)CN1Cc1ccc(-c2ccnnc2)cc1` [Example 309, 4-(2-fluoro-4-(trifluoromethyl)phenoxy)-2-(4-(pyridazin-4-yl)benzyl)-1,2-dihydro-3H-pyrrolo[3,4-c]pyridin-3-one], the EC50 amounted to 27 nM and the “activity (%) at 10 μM” value turned out to be 100%.
In the case of `Cn1ccc(-c2ccc(CN3Cc4ncnc(Oc5ccc(C(F)F)cc5F)c4C3=O)cc2)n1` [Example 310, 4-(4-(difluoromethyl)-2-fluorophenoxy)-6-(4-(1-methyl-1H-pyrazol-3-yl)benzyl)-6,7-dihydro-5H-pyrrolo[3,4-d]pyrimidin-5-one], the EC50 was 30 nM and the “activity (%) at 10 μM” value stood at 105%.
On the same counts, the results for `Cc1cc(-c2ccc(CN3Cc4ncnc(Oc5ccc(C(F)(F)F)cc5F)c4C3=O)cc2)cnn1` [Example 311, 4-(2-fluoro-4-(trifluoromethyl)phenoxy)-6-(4-(6-methylpyridazin-4-yl)benzyl)-6,7-dihydro-5H-pyrrolo[3,4-d]pyrimidin-5-one] are 16 nM and 100%.
Regarding `Cc1nn(C)cc1-c1ccc(CN2Cc3ccnc(Oc4cc(C(C)(C)O)ccc4F)c3C2=O)cc1` [Example 312, 2-(4-(1,3-dimethyl-1H-pyrazol-4-yl)benzyl)-4-(2-fluoro-5-(2-hydroxypropan-2-yl)phenoxy)-1,2-dihydro-3H-pyrrolo[3,4-c]pyridin-3-one], the EC50 worked out at 39 nM and the “activity (%) at 10 μM” value is on record as 96%.
Consider `O=C1c2c(ncnc2Oc2ccc(C(F)(F)F)cc2F)CN1Cc1ccc(-c2ccnnc2)cc1` [Example 313, 4-(2-fluoro-4-(trifluoromethyl)phenoxy)-6-(4-(pyridazin-4-yl)benzyl)-6,7-dihydro-5H-pyrrolo[3,4-d]pyrimidin-5-one], for which the EC50 amounted to 27 nM and the “activity (%) at 10 μM” value turned out to be 89%.
On the same counts, the results for `Cn1ccc(-c2ccc(CN3Cc4ncnc(Oc5ccc(C(F)(F)F)cc5F)c4C3=O)cc2)n1` [Example 314, 4-(2-fluoro-4-(trifluoromethyl)phenoxy)-6-(4-(1-methyl-1H-pyrazol-3-yl)benzyl)-6,7-dihydro-5H-pyrrolo[3,4-d]pyrimidin-5-one] are 11 nM and 89%.
On the same counts, the results for `Cc1nn(C)cc1-c1ccc(CN2Cc3ncnc(OC4CCC4)c3C2=O)cc1` [Example 323, 4-(cyclobutyloxy)-6-(4-(1,3-dimethyl-1H-pyrazol-4-yl)benzyl)-6,7-dihydro-5H-pyrrolo[3,4-d]pyrimidin-5-one] are 21 nM and 89%.
In the case of `CCn1cc(-c2ccc(CN3Cc4ncnc(OC5CCC5)c4C3=O)cc2)cn1` [Example 324, 4-(cyclobutyloxy)-6-(4-(1-ethyl-1H-pyrazol-4-yl)benzyl)-6,7-dihydro-5H-pyrrolo[3,4-d]pyrimidin-5-one], the EC50 was found to be 19 nM and the “activity (%) at 10 μM” value is reported as 99%.
On the same counts, the results for `O=C1c2c(ccnc2OCC2CCCO2)CN1Cc1ccc(-c2ccnc(C(F)(F)F)c2)cc1` (centres unmarked) [Example 325, 4-((tetrahydrofuran-2-yl)methoxy)-2-(4-(2-(trifluoromethyl)pyridin-4-yl)benzyl)-1,2-dihydro-3H-pyrrolo[3,4-c]pyridin-3-one] are 47 nM and 116%.
`Cc1cc(-c2ccc(CN3Cc4ccnc(OCC5CCCO5)c4C3=O)cc2)cnn1` (centres unmarked) [Example 326, 2-(4-(6-methylpyridazin-4-yl)benzyl)-4-((tetrahydrofuran-2-yl)methoxy)-1,2-dihydro-3H-pyrrolo[3,4-c]pyridin-3-one]: the EC50 stood at 23 nM and the “activity (%) at 10 μM” value is listed as 108%.
On the same counts, the results for `Cn1cc(-c2ccc(CN3Cc4ccnc(OCc5ccccc5F)c4C3=O)c(F)c2)nn1` [Example 327, 4-((2-fluorobenzyl)oxy)-2-(2-fluoro-4-(1-methyl-1H-1,2,3-triazol-4-yl)benzyl)-1,2-dihydro-3H-pyrrolo[3,4-c]pyridin-3-one] are 6.5 nM and 98%.
Regarding `Cc1nn(C)cc1-c1ccc(CN2Cc3ccnc(OCc4ncccc4F)c3C2=O)c(F)c1` [Example 329, 2-(4-(1,3-dimethyl-1H-pyrazol-4-yl)-2-fluorobenzyl)-4-((3-fluoropyridin-2-yl)methoxy)-1,2-dihydro-3H-pyrrolo[3,4-c]pyridin-3-one], the EC50 was determined as 4.3 nM and the “activity (%) at 10 μM” value was 106%.
On the same counts, the results for `Cn1cc(-c2ccc(CN3Cc4cccc(OCC5CCCO5)c4C3=O)c(F)c2)nn1` (centres unmarked) [Example 330, 2-(2-fluoro-4-(1-methyl-1H-1,2,3-triazol-4-yl)benzyl)-7-((tetrahydrofuran-2-yl)methoxy)isoindolin-1-one] are 30 nM and 104%.
On the same counts, the results for `Cn1cc(-c2ccc(CN3Cc4ccnc(OCC5CC5)c4C3=O)c(F)c2)nn1` [Example 331, 4-(cyclopropylmethoxy)-2-(2-fluoro-4-(1-methyl-TH-1,2,3-triazol-4-yl)benzyl)-1,2-dihydro-3H-pyrrolo[3,4-c]pyridin-3-one] are 16 nM and 104%.
On the same counts, the results for `Cn1cc(-c2ccc(CN3Cc4ccnc(OCc5ccccc5F)c4C3=O)cc2)nn1` [Example 332, 4-((2-fluorobenzyl)oxy)-2-(4-(1-methyl-1H-1,2,3-triazol-4-yl)benzyl)-1,2-dihydro-3H-pyrrolo[3,4-c]pyridin-3-one] are 17 nM and 106%.
As for `O=C1c2c(ccnc2OCC2CCCO2)CN1Cc1ccc(-c2cc[nH]n2)cc1` (centres unmarked) [Example 333, 2-(4-(1H-pyrazol-3-yl)benzyl)-4-((tetrahydrofuran-2-yl)methoxy)-1,2-dihydro-3H-pyrrolo[3,4-c]pyridin-3-one], the EC50 was determined as 21 nM and the “activity (%) at 10 μM” value was 114%.
On the same counts, the results for `CC(Oc1nccc2c1C(=O)N(Cc1ccc(-c3cn(C)nn3)cc1F)C2)c1ccccc1F` (centres unmarked) [Example 334, 2-(2-fluoro-4-(1-methyl-1H-1,2,3-triazol-4-yl)benzyl)-4-(1-(2-fluorophenyl)ethoxy)-1,2-dihydro-3H-pyrrolo[3,4-c]pyridin-3-one] are 65 nM and 99%.
For the molecule `Cn1cc(-c2ccc(CN3Cc4ccnc(OC5CCC5)c4C3=O)cc2)nn1` [Example 335, 4-(cyclobutyloxy)-2-(4-(1-methyl-1H-1,2,3-triazol-4-yl)benzyl)-1,2-dihydro-3H-pyrrolo[3,4-c]pyridin-3-one], the EC50 is 57 nM and the “activity (%) at 10 μM” value is on record as 98%.
On the same counts, the results for `Cn1cc(-c2ccc(CN3Cc4ccnc(OCc5ccc(F)cc5F)c4C3=O)cc2)nn1` [Example 336, 4-((2,4-difluorobenzyl)oxy)-2-(4-(1-methyl-1H-1,2,3-triazol-4-yl)benzyl)-1,2-dihydro-3H-pyrrolo[3,4-c]pyridin-3-one] are 22 nM and 106%.
Turning to `Cn1cc(-c2ccc(CN3Cc4ccnc(OCC5CC5)c4C3=O)cc2)nn1` [Example 337, 4-(cyclopropylmethoxy)-2-(4-(1-methyl-1H-1,2,3-triazol-4-yl)benzyl)-1,2-dihydro-3H-pyrrolo[3,4-c]pyridin-3-one], the EC50 worked out at 49 nM and the “activity (%) at 10 μM” value was 92%.
Turning to `Cn1cc(-c2ccc(CN3Cc4ccnc(OC5CCC5)c4C3=O)c(F)c2)nn1` [Example 338, 4-(cyclobutyloxy)-2-(2-fluoro-4-(1-methyl-1H-1,2,3-triazol-4-yl)benzyl)-1,2-dihydro-3H-pyrrolo[3,4-c]pyridin-3-one], the EC50 is 19 nM and the “activity (%) at 10 μM” value was 98%.
On the same counts, the results for `Cc1cc(-c2ccc(CN3Cc4ccnc(OCC5CC5)c4C3=O)cc2)ccn1` [Example 339, 4-(cyclopropylmethoxy)-2-(4-(2-methylpyridin-4-yl)benzyl)-1,2-dihydro-3H-pyrrolo[3,4-c]pyridin-3-one] are 70 nM and 106%.
On the same counts, the results for `Cn1cc(-c2ccc(CN3Cc4ncnc(OCc5ccc(F)cc5F)c4C3=O)cc2)nn1` [Example 340, 4-((2,4-difluorobenzyl)oxy)-6-(4-(1-methyl-1H-1,2,3-triazol-4-yl)benzyl)-6,7-dihydro-5H-pyrrolo[3,4-d]pyrimidin-5-one] are 3.8 nM and 106%.
On the same counts, the results for `Cc1nn(C)cc1-c1ccc(CN2Cc3ccnc(OCC4(C)CC4)c3C2=O)c(F)c1` [Example 341, 2-(4-(1,3-dimethyl-1H-pyrazol-4-yl)-2-fluorobenzyl)-4-((1-methylcyclopropyl)methoxy)-1,2-dihydro-3H-pyrrolo[3,4-c]pyridin-3-one] are 63 nM and 93%.
Regarding `Cn1ccc(-c2ccc(CN3Cc4ccnc(OCc5ccccc5F)c4C3=O)c(F)c2)n1` [Example 342, 4-((2-fluorobenzyl)oxy)-2-(2-fluoro-4-(1-methyl-1H-pyrazol-3-yl)benzyl)-1,2-dihydro-3H-pyrrolo[3,4-c]pyridin-3-one], the EC50 was 73 nM and the “activity (%) at 10 μM” value was 96%.
